Source: article PMC6208485, “Discovery of the first macrolide antibiotic binding protein in Mycobacterium tuberculosis: a new antibiotic resistance drug target” (Protein & Cell, 2018)

These compounds were tested against MABP-1 (Rv3197) (Mycobacterium tuberculosis, UniProt O53343).
Chain of MABP-1 (Rv3197) (O53343 entry or part of it): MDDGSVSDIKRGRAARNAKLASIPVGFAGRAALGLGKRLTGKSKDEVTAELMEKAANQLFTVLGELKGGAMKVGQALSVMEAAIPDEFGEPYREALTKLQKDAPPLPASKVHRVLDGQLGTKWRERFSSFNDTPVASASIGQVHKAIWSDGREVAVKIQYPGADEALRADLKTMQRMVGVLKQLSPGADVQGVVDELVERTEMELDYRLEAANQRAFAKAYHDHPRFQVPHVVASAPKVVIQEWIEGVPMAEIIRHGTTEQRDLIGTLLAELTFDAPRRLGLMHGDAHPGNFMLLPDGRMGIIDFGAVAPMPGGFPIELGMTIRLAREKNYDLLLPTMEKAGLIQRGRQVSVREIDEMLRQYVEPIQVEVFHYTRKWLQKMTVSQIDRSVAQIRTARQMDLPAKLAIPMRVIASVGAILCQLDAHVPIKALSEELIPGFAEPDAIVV

| SMILES | crystal structure of the complex |
| --- | --- |
| Nc1ncnc2c1ncn2[C@@H]1O[C@H](COP(=O)(O)OP(=O)(O)O)[C@@H](O)[C@H]1O [ADP] | crystal structures of MABP-1 in complex with AMPPNP and with ADP, were determined |
| Nc1ncnc2c1ncn2[C@@H]1O[C@H](COP(=O)(O)OP(=O)(O)NP(=O)(O)O)[C@@H](O)[C@H]1O [AMPPNP] | crystal structures of MABP-1 in complex with AMPPNP and with ADP, were determined |
| CC[C@H]1OC(=O)[C@H](C)[C@@H](O[C@H]2C[C@@](C)(OC)[C@@H](O)[C@H](C)O2)[C@H](C)[C@@H](O[C@@H]2O[C@H](C)C[C@H](N(C)C)[C@H]2O)[C@](C)(O)C[C@@H](C)C(=O)[C@H](C)[C@@H](O)[C@]1(C)O [erythromycin] | The electron density for erythromycin was unequivocal revealing it is located in a shallow pocket |
